Like-named read-outs stand apart in the source and are kept apart here.
Tests used:
[1] = tested on: GM3 expression on the cell surface, C32 human melanoma cells; assay: cell based phenotypic assay, cell surface GM3 by antibody mediated immunofluorescence, C32 (GM3 C32 IC50); details: 50% inhibition of GM3 expression on the cell surface
Procedure, shortened: (§1)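 B16 mouse and C32 human melanoma cells; cell-surface GM3 measured by antibody-mediated immunofluorescence, giving IC50.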

[2] = tested on: C32 human melanoma cells; assay: cell viability in the C32 cell-based assay (Viability, C32 IC50); details: concentration causing 50% cell death, values greater than 10 represent a lack of cell death
Procedure, shortened: (§2)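 Both lines undergo the phenotypic GM3 assay, and viability is recorded from that same cell-based run.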

[3] = tested on: B16 mouse melanoma cells; assay: cell viability in the B16 cell-based assay (Viability, B16 IC50)
Procedure, shortened: as §2

[4] = molecular target: T1, glucosylceramide synthase (Homo sapiens, UniProt Q16739); assay: microsomal assay measuring conversion of ceramide to glucosylceramide by HPLC (GCS IC50); format: biochemical; details: concentration causing 50% inhibition of glucosylceramide synthase activity
T1 construct: Microsomes were isolated from A375 human melanoma cells; endogenous in cells; host or cells: A375 human melanoma cells (microsomal fraction, 100,000 g pellet)
T1 sequence (Q16739 1-394): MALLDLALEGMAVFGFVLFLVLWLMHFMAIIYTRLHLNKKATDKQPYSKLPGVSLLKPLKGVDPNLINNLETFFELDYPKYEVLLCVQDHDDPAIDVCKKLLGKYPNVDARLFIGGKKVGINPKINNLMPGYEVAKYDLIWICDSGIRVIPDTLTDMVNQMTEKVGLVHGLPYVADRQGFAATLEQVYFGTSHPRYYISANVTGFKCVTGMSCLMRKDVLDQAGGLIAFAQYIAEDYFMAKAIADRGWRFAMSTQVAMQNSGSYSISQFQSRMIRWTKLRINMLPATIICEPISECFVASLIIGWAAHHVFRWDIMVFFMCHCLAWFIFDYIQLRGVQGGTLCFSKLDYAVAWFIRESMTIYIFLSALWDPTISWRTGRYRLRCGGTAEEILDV
Procedure, shortened: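 Microsomal preparation assayed for glucosylceramide synthase by direct HPLC measurement of ceramide conversion to glucosylceramide. GCS IC50 is the compound concentration giving 50% inhibition of enzyme activity.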

[5] = tested on: GM3 expression on the cell surface, B16 mouse melanoma cells; assay: cell based phenotypic assay, cell surface GM3 by antibody mediated immunofluorescence, B16 (GM3 B16 IC50); details: 50% inhibition of GM3 expression on the cell surface
Procedure, shortened: as §1

[6] = Homo sapiens, C32 human melanoma cells, read-out: GM3 C32 IC50
[7] = Homo sapiens, C32, C32 cells, read-out: Viability, C32 IC50
[8] = Mus musculus, B16, B16 cells, concentration causing 50% cell death, values greater than 10 represent a lack of cell death, read-out: Viability, B16 IC50
[9] = Mus musculus, B16 mouse melanoma cells, read-out: GM3 B16 IC50
[10] = C32 human melanoma cells, read-out: GM3 C32 IC50
[11] = C32 cells, read-out: Viability, C32 IC50
[12] = B16 cells, concentration causing 50% cell death, values greater than 10 represent a lack of cell death, read-out: Viability, B16 IC50
[13] = B16 mouse melanoma cells, read-out: GM3 B16 IC50

Molecule | IC50 [1, 6] | IC50 [4] | IC50 [5, 9] | IC50 [2, 7] | IC50 [3, 8] | IC50 [1, 10] | IC50 [2, 11] | IC50 [3, 12] | IC50 [5, 13] | IC50 ([1]; Homo sapiens, read-out: GM3 C32 IC50, C32 human melanoma cells) | IC50 ([2]; Homo sapiens, C32, read-out: Viability, C32 IC50, C32 cells) | IC50 ([3]; Mus musculus, B16, read-out: Viability, B16 IC50) | IC50 ([5]; Mus musculus, read-out: GM3 B16 IC50, B16 mouse melanoma cells)
CC1(NC(=O)C2(F)CCN(c3ncc(Oc4ccc(F)cc4)cn3)CC2)CN2CCC1CC2 (stereo not drawn) [Example 129, 4-Fluoro-1-(5-(4-fluorophenoxy)pyrimidin-2-yl)-N-(3-methylquinuclidin-3-yl)piperidine-4-carboxamide] | 0.38 nM | 4.27 nM | 97.8 nM | 316 nM | 8260 nM |  |  |  |  |  |  |  | 
3-Ethyl-N-(4-methyl-1-azabicyclo[3.2.2]nonan-4-yl)-4-(4-phenylpyrimidin-2-yl)piperazine-1-carboxamide [Example 143] |  | 1.79 nM |  |  |  | 0.304 nM | 3160 nM | 3110 nM | 52.3 nM |  |  |  | 
CC1(NC(=O)N2CCN(c3ccc(-c4ccccc4)cc3)CC2)CN2CCC1CC2 (stereo not drawn) [Example 1, 4-([1,1′-Biphenyl]-4-yl)-N-(3-methylquinuclidin-3-yl)piperazine-1-carboxamide] | 109 nM | 719 nM | 1260 nM | ≥ 10000 nM | 7160 nM |  |  |  |  |  |  |  | 
CC1(NC(=O)C2CCN(c3cncc(-c4ccc(F)cc4)n3)CC2)CCN2CCC1CC2 (stereo not drawn) [Example 46, 1-(6-(4-Fluorophenyl)pyrazin-2-yl)-N-(4-methyl-1-azabicyclo[3.2.2]nonan-4-yl)piperidine-4-carboxamide] | 0.425 nM | 2.79 nM | 76.6 nM | 316 nM | 7310 nM |  |  |  |  |  |  |  | 
1-Azabicyclo[3.2.2]nonan-3-yl 4-(4′-fluoro-[1,1′-biphenyl]-3-yl)piperazine-1-carboxylate [Example 25] |  | 3480 nM |  |  |  | 9380 nM | 5410 nM | 5390 nM | 4860 nM |  |  |  | 
1-(5-Fluoro-4-(4-(2-methoxyethoxy)phenyl)pyrimidin-2-yl)-N-(3-methylquinuclidin-3-yl)piperidine-4-carboxamide [Example 57] |  | 2.41 nM |  |  |  | 0.169 nM | 1000 nM | ≥ 10000 nM | 69.3 nM |  |  |  | 
CN(C)C(=O)c1ccc(-c2ccc(C(C)(C)NC(=O)OC3CN4CCC3CC4)cc2)cc1 (stereo not drawn) [Example 257, Quinuclidin-3-yl 2-(4′-(dimethylcarbamoyl)biphenyl-4-yl)propan-2-ylcarbamate] |  | 365 nM |  |  |  |  |  |  |  | 77.2 nM | ≥ 10000 nM | ≥ 10000 nM | 786 nM
CC1(NC(=O)N2CCN(c3ccccc3)CC2)CCN2CCC1CC2 (stereo not drawn) [Example 10, N-(4-Methyl-1-azabicyclo[3.2.2]nonan-4-yl)-4-phenylpiperazine-1-carboxamide] | 4240 nM | 14700 nM | > 10000 nM | ≥ 10000 nM | ≥ 10000 nM |  |  |  |  |  |  |  | 
CC1(NC(=O)C2CCN(c3nccc(-c4cc(F)cc(F)c4)n3)CC2)CCN2CCC1CC2 (stereo not drawn) [Example 65, 1-(4-(3,5-Difluorophenyl)pyrimidin-2-yl)-N-(4-methyl-1-azabicyclo[3.2.2]nonan-4-yl)piperidine-4-carboxamide] | 0.0934 nM | 1.31 nM | 56.1 nM | 215 nM | 4140 nM |  |  |  |  |  |  |  | 
CC1(NC(=O)C2(F)CCN(c3nccc(-c4ccc(OCCF)cc4)n3)CC2)CN2CCC1CC2 (stereo not drawn) [Example 92, 4-Fluoro-1-(4-(4-(2-fluoroethoxy)phenyl)pyrimidin-2-yl)-N-(3-methylquinuclidin-3-yl)piperidine-4-carboxamide] | 0.106 nM | 1.46 nM | 29 nM | 100 nM | 6830 nM |  |  |  |  |  |  |  | 
CCCC1(NC(=O)NC(C)(C)c2ccc(-c3ccc(S(=O)(=O)CCCOC)cc3)cc2)CN2CCC1CC2 (stereo not drawn) [Example 244, 1-(2-(4′-((3-Methoxypropyl)sulfonyl)-[1,1′-biphenyl]-4-yl)propan-2-yl)-3-(3-propylquinuclidin-3-yl)urea] | 6.99 nM | 37.1 nM | 34.1 nM | 3160 nM | ≥ 10000 nM |  |  |  |  |  |  |  | 
CCC1(NC(=O)NC(C)(C)C#Cc2ccc(CCOC)cc2)CN2CCC1CC2 (stereo not drawn) [Example 325, 1-(3-Ethylquinuclidin-3-yl)-3-(4-(4-(2-methoxyethyl)phenyl)-2-methylbut-3-yn-2-yl)urea] | 7.94 nM | 92 nM | 399 nM | ≥ 10000 nM | ≥ 10000 nM |  |  |  |  |  |  |  | 

More lines, main results first:

IC50 [1, 6] | IC50 [4] | IC50 [5, 9] | Molecule | IC50 [2, 7] | IC50 [3, 8] | IC50 [1, 10] | IC50 [2, 11] | IC50 [3, 12] | IC50 [5, 13] | IC50 ([1]; Homo sapiens, read-out: GM3 C32 IC50, C32 human melanoma cells) | IC50 ([2]; Homo sapiens, C32, read-out: Viability, C32 IC50, C32 cells) | IC50 ([3]; Mus musculus, B16, read-out: Viability, B16 IC50) | IC50 ([5]; Mus musculus, read-out: GM3 B16 IC50, B16 mouse melanoma cells)
0.155 nM | 1.43 nM | 15.9 nM | CC1(NC(=O)C2(F)CCN(c3nccc(Oc4ccc(F)cc4)n3)CC2)CCN2CCC1CC2 (stereo not drawn) [Example 116, 4-Fluoro-1-(4-(4-fluorophenoxy)pyrimidin-2-yl)-N-(4-methyl-1-azabicyclo[3.2.2]nonan-4-yl)piperidine-4-carboxamide] | 100 nM | 5720 nM |  |  |  |  |  |  |  | 
11.7 nM | 53.4 nM | 2640 nM | C#CC1CN(C(=O)NC2(C)CCN3CCC2CC3)CCN1c1nccc(-c2ccc(COC)cc2)n1 (stereo not drawn) [Example 153, 3-Ethynyl-4-(4-(4-(methoxymethyl)phenyl)pyrimidin-2-yl)-N-(4-methyl-1-azabicyclo[3.2.2]nonan-4-yl)piperazine-1-carboxamide] | 1000 nM | ≥ 10000 nM |  |  |  |  |  |  |  | 
18 nM | 257 nM | 283 nM | COCCOc1cccc(-c2ccc(C(C)(C)NC(=O)N3CCN4CCC3CC4)cc2)c1 [Example 169, N-(2-(3′-(2-Methoxyethoxy)-[1,1′-biphenyl]-4-yl)propan-2-yl)-1,4-diazabicyclo[3.2.2]nonane-4-carboxamide] | 1000 nM | ≥ 10000 nM |  |  |  |  |  |  |  | 
1.45 nM | 32.5 nM | 11.9 nM | COCCOc1ccc(-c2cccc(C(C)(C)NC(=O)OC3CCN4CCC3CC4)c2)cc1 (stereo not drawn) [Example 171, 1-Azabicyclo[3.2.2]nonan-4-yl (2-(4′-(2-methoxyethoxy)-[1,1′-biphenyl]-3-yl)propan-2-yl)carbamate] | 3980 nM | 74.6 nM |  |  |  |  |  |  |  | 
8.76 nM | 65.8 nM | 56.4 nM | COCCOc1ccc(-c2nc(C(C)(C)NC(=O)OC3CCN4CCC3CC4)cs2)cc1 (stereo not drawn) [Example 344, 1-Azabicyclo[3.2.2]nonan-4-yl (2-(2-(4-(2-methoxyethoxy)phenyl)thiazol-4-yl)propan-2-yl)carbamate] | 1000 nM | ≥ 10000 nM |  |  |  |  |  |  |  | 
3.39 nM | 17.2 nM | 49.4 nM | CC(C)(NC(=O)OC1CCN2CCC1CC2)c1ccc(Oc2ccc(C(=O)N3CCC(F)(F)CC3)cc2)cc1 (stereo not drawn) [Example 301, 1-Azabicyclo[3.2.2]nonan-4-yl 2-(4-(4-(4,4-difluoropiperidine-1-carbonyl)phenoxy)phenyl)propan-2-ylcarbamate] | 1000 nM | ≥ 10000 nM |  |  |  |  |  |  |  | 
2.64 nM | 9.42 nM | 60.7 nM | CC(C)(NC(=O)OC1CCN2CCC1CC2)c1ccc(-c2ccc(C(=O)N3CCC(F)(F)CC3)cc2)cc1 (stereo not drawn) [Example 271, 1-Azabicyclo[3.2.2]nonan-4-yl 2-(4′-(4,4-difluoropiperidine-1-carbonyl)biphenyl-4-yl)propan-2-ylcarbamate] | 316 nM | ≥ 10000 nM |  |  |  |  |  |  |  | 
9.05 nM | 168 nM | 88.4 nM | CC1(NC(=O)C2(F)CCN(c3ncnc(Oc4ccc(F)cc4)n3)CC2)CCN2CCC1CC2 (stereo not drawn) [Example 117, 4-Fluoro-1-(4-(4-fluorophenoxy)-1,3,5-triazin-2-yl)-N-(4-methyl-1-azabicyclo[3.2.2]nonan-4-yl)piperidine-4-carboxamide] | 1000 nM | ≥ 10000 nM |  |  |  |  |  |  |  | 
20.5 nM | 134 nM | 179 nM | CN(C)C(=O)c1ccc(-c2ccc(C(C)(C)NC(=O)OC3CCN4CCC3CC4)cc2)cc1 (stereo not drawn) [Example 259, 1-Azabicyclo[3.2.2]nonan-4-yl 2-(4′-(dimethylcarbamoyl)biphenyl-4-yl)propan-2-ylcarbamate] | ≥ 10000 nM | ≥ 10000 nM |  |  |  |  |  |  |  | 
